Reference: ChEMBL document CHEMBL5528067, “From Synergy to Monotherapy: Discovery of Novel 2,4,6-Trisubstituted Triazine Hydrazone Derivatives with Potent Antifungal Potency In Vitro and In Vivo” (J Med Chem, 2024)
Values after ≈ are worked out from the molar mass of the structure shown.

Assays:
Format in all cases: functional
Candida albicans [1] = experiment: Synergistic antifungal activity against FCZ-resistant Candida albicans strain 901 assessed as fractional inhibitory concentration index measured after 48 hrs in presence of FCZ by CLSI based micro-dilution broth method
Pichia kudriavzevii = experiment: Antifungal activity against Candida krusei 4996 assessed as growth inhibition measured after 48 hrs incubation by CLSI based micro-dilution broth method
Candida parapsilosis = experiment: Antifungal activity against Candida parapsilosis 22019 assessed as growth inhibition measured after 48 hrs incubation by CLSI based micro-dilution broth method; conditions: Lodderomyces parapsilosis
Candida albicans [2] = experiment: Antifungal activity against FCZ-resistant Candida albicans 10231 assessed as growth inhibition measured after 48 hrs incubation by CLSI based micro-dilution broth method
Cryptococcus neoformans = experiment: Antifungal activity against Cryptococcus neoformans 32609 assessed as growth inhibition measured after 48 hrs incubation by CLSI based micro-dilution broth method
Candida albicans [3] = experiment: Synergistic antifungal activity against FCZ-resistant Candida albicans strain 904 assessed as fractional inhibitory concentration index measured after 48 hrs in presence of FCZ by CLSI based micro-dilution broth method
Candida tropicalis = experiment: Antifungal activity against Candida tropicalis 8915 assessed as growth inhibition measured after 48 hrs incubation by CLSI based micro-dilution broth method
Candida albicans [4] = experiment: Antifungal activity against FCZ-resistant Candida albicans strain 904 assessed as growth inhibition in presence of fluconazole measured after 48 hrs incubation by CLSI based micro-dilution broth method
Candida albicans [5] = experiment: Antifungal activity against FCZ-resistant Candida albicans SC5314 assessed as growth inhibition measured after 48 hrs incubation by CLSI based micro-dilution broth method
Nakaseomyces glabratus = experiment: Antifungal activity against Candida glabrata 537 assessed as growth inhibition measured after 48 hrs incubation by CLSI based micro-dilution broth method
Candida albicans [6] = experiment: Antifungal activity against FCZ-resistant Candida albicans strain 904 assessed as growth inhibition measured after 48 hrs incubation by CLSI based micro-dilution broth method
Candida albicans [7] = experiment: Antifungal activity against FCZ-resistant Candida albicans strain 901 assessed as growth inhibition in presence of fluconazole measured after 48 hrs incubation by CLSI based micro-dilution broth method
[Candida] auris [8] = Antifungal activity against FCZ-resistant Candida auris 919 assessed as growth inhibition measured after 48 hrs incubation by CLSI based micro-dilution broth method; conditions: Candidozyma auris
[Candida] auris [9] = Antifungal activity against FCZ-resistant Candida auris 918 assessed as growth inhibition measured after 48 hrs incubation by CLSI based micro-dilution broth method; conditions: Candidozyma auris
Candida albicans [10] = experiment: Antifungal activity against FCZ-resistant Candida albicans strain 901 assessed as growth inhibition measured after 48 hrs incubation by CLSI based micro-dilution broth method

| SMILES | fractional inhibitory concentration index (FICI) (Candida albicans [1]) | MIC80 (Pichia kudriavzevii) [µg/mL] | MIC80 (Candida parapsilosis) [µg/mL] | MIC80 (Candida albicans [2]) [µg/mL] | MIC80 (Cryptococcus neoformans) [µg/mL] | fractional inhibitory concentration index (FICI) (Candida albicans [3]) | MIC80 (Candida tropicalis) [µg/mL] | MIC80 (Candida albicans [4]) [µg/mL] | MIC80 (Candida albicans [5]) [µg/mL] | MIC80 (Nakaseomyces glabratus) [µg/mL] | MIC80 (Candida albicans [6]) [µg/mL] | MIC80 (Candida albicans [7]) [µg/mL] | MIC80 ([Candida] auris [8]) [µg/mL] | MIC80 ([Candida] auris [9]) [µg/mL] | MIC80 (Candida albicans [10]) [µg/mL] |
| --- | --- | --- | --- | --- | --- | --- | --- | --- | --- | --- | --- | --- | --- | --- | --- |
| Oc1ccccc1/C=N/Nc1nc(NCc2ccc(F)cc2)nc(NCc2ccc(F)cc2)n1 | 0.25 | > 64 | 8 (≈ 17.3 µM) | > 64 | 8 (≈ 17.3 µM) | 0.25 | > 64 | 0.5 | > 64 | 4 (≈ 8.67 µM) | 4 (≈ 8.67 µM) | 0.5 | > 64 | > 64 | 4 (≈ 8.67 µM) |
| O=[N+]([O-])c1ccc(/C=N/Nc2nc(NCc3ccc(F)cc3)nc(NCc3ccc(F)cc3)n2)c(O)c1 | 0.38 | > 64 | > 64 | > 64 | > 64 | 0.38 | > 64 | 0.5 | > 64 | 2 (≈ 3.95 µM) | 2 (≈ 3.95 µM) | 0.5 | > 64 | > 64 | 2 (≈ 3.95 µM) |
| O=[N+]([O-])c1ccc(O)c(/C=N/Nc2nc(NCc3ccc(F)cc3)nc(NCC3CCCCC3)n2)c1 |  | 1 (≈ 2.02 µM) | 2 (≈ 4.04 µM) | 16 (≈ 32.4 µM) | 2 (≈ 4.04 µM) |  | 2 (≈ 4.04 µM) |  | 2 (≈ 4.04 µM) | 1 (≈ 2.02 µM) |  |  | 8 (≈ 16.2 µM) | 4 (≈ 8.09 µM) |  |
| COc1ccc(Nc2nc(NCc3ccco3)nc(N/N=C/c3cc([N+](=O)[O-])ccc3O)n2)cc1 |  | 1 (≈ 2.1 µM) | 4 (≈ 8.4 µM) | 8 (≈ 16.8 µM) | 2 (≈ 4.2 µM) |  | 4 (≈ 8.4 µM) |  | 2 (≈ 4.2 µM) | 0.5 (≈ 1.05 µM) |  |  | 8 (≈ 16.8 µM) | 8 (≈ 16.8 µM) |  |
| O=[N+]([O-])c1ccc(O)c(/C=N/Nc2nc(NCc3ccc(F)cc3)nc(Nc3ccc(F)cc3)n2)c1 |  | 1 (≈ 2.03 µM) | 8 (≈ 16.2 µM) | 8 (≈ 16.2 µM) | 2 (≈ 4.06 µM) |  | 2 (≈ 4.06 µM) |  | 2 (≈ 4.06 µM) | 0.5 (≈ 1.02 µM) |  |  | 32 (≈ 65 µM) | 8 (≈ 16.2 µM) |  |
| COc1ccc(Nc2nc(NCc3ccc(F)cc3)nc(N/N=C/c3cc([N+](=O)[O-])ccc3O)n2)cc1 |  | 1 (≈ 1.98 µM) | 8 (≈ 15.9 µM) | 16 (≈ 31.7 µM) | 2 (≈ 3.96 µM) |  | 2 (≈ 3.96 µM) |  | 2 (≈ 3.96 µM) | 0.5 (≈ 0.991 µM) |  |  | 32 (≈ 63.4 µM) | 32 (≈ 63.4 µM) |  |
| COc1ccc(Nc2nc(N/N=C/c3cc([N+](=O)[O-])ccc3O)nc(Nc3ccc(OC)cc3)n2)cc1 |  | 1 (≈ 1.99 µM) | > 64 | 16 (≈ 31.8 µM) | 2 (≈ 3.98 µM) |  | 4 (≈ 7.96 µM) |  | 2 (≈ 3.98 µM) | 2 (≈ 3.98 µM) |  |  | > 64 | > 64 |  |
| O=[N+]([O-])c1cccc(/C=N/Nc2nc(NCc3ccc(F)cc3)nc(NCc3ccc(F)cc3)n2)c1O | 0.25 | 2 (≈ 3.95 µM) | 2 (≈ 3.95 µM) | 32 (≈ 63.2 µM) | 1 (≈ 1.97 µM) | 0.38 | 2 (≈ 3.95 µM) | 0.25 | 8 (≈ 15.8 µM) | 1 (≈ 1.97 µM) | 1 (≈ 1.97 µM) | 0.25 | 32 (≈ 63.2 µM) | 4 (≈ 7.9 µM) | 2 (≈ 3.95 µM) |
| O=[N+]([O-])c1ccc(O)c(/C=N/Nc2nc(NCc3ccc(F)cc3)nc(NCc3ccco3)n2)c1 |  | 1 (≈ 2.09 µM) | 2 (≈ 4.18 µM) | 8 (≈ 16.7 µM) | 2 (≈ 4.18 µM) |  | 2 (≈ 4.18 µM) |  | 2 (≈ 4.18 µM) | 1 (≈ 2.09 µM) |  |  | 4 (≈ 8.36 µM) | 2 (≈ 4.18 µM) |  |
